Laboratory results published in US20250186470A1, “Compositions and Methods Using Lactulose for Treating Disease” (THE UNIVERSITY OF CHICAGO, priority 2023, published 2025).

What was measured:
[1] = test system: VRE (vancomycin resistant Enterococcus faecium, ATCC 700221); test: VRE growth curves in B. longum conditioned media, SCFA- or lactulose-supplemented media; assay type: cell-based; settings: 50 mM lactulose in media
Protocol: FIGS. 11A-11F: Bifidobacterium longum supernatant inhibits VRE growth in vitro. (A) Schematic of experimental design for VRE growth in B. longum conditioned media (CM). B. longum was grown in BHIS for 24-hours prior to collecting and filtering the supernatant. VRE growing at steady state was then diluted to a low density (OD600=0.05) prior to inoculating in various dilutions of B. longum conditioned media in fresh BHIS. (B) VRE growth curves in 100%, 50%, 12.5%, and 0% CM with the pH of the 4 concentrations of CM in BHIS shown in the right portion of this panel. […] (E) VRE was grown in minimal media containing either no additive (blue) or 50 mM lactulose, and OD600 was measured over time. (F) VRE was grown in BHIS with or without 50 mM lactulose, and OD600 was measured over time. […]
The Bifidobacteria longum strains MSK.11.12 and DFI.2.45 were previously derived from two distinct healthy donor stool samples and whole genome sequenced (BioSample ID: SAMN19731851 and SAMN22167409). […] All growth curves were obtained in anaerobic culture conditions at 37° C. on a BioTek EPOCH2 microplate reader with BioTek Gen 5 3.11 software. Growth curves were analyzed in GraphPad Prism Version 9.4.0. Lactulose concentrations in were measured using the EnzyChrom™ Lactulose Assay Kit (ELTL-100).

[2] = test system: B. longum; test: Ex-germ-free mice colonized with 8-11 strain consortia containing B. longum +/- lactulose; assay type: in vivo, mouse
Excerpt: (A) Schematic indicating timing of consortia gavage, lactulose administration (20 g/L in drinking water), and stool collection in ex-germ-free mice. […] (B) 16S metagenomics from stool samples without (left facet within each consortia) and with (right facet within each consortia) lactulose exposure is shown as relative abundance. Concentrations of acetate and taurocholic acid are shown in units of mM below each paired sample. (C) Bifidobacteria relative abundance, acetate concentration (mM), and taurocholic acid concentrations (μg/ml) were measured and compared between mice that were and were not exposed to lactulose. […] DNA was extracted using the QIAamp PowerFecal Pro DNA kit (Qiagen). Prior to extraction, samples were subjected to mechanical disruption using a bead beating method. Briefly, samples were suspended in a bead tube (Qiagen) along with lysis buffer and loaded on a bead mill homogenizer (Fisherbrand). Samples were then centrifuged, and supernatant was resuspended in a reagent that effectively removed inhibitors. DNA was then purified routinely using a spin column filter membrane and quantified using Qubit. […] Short chain fatty acids (SCFA, i.e. butyrate, acetate, propionate, and succinate) were derivatized with pentafluorobenzyl bromide (PFBBr) and analyzed via negative ion collision induced-gas chromatography-mass spectrometry ([-]CI-GC-MS, Agilent 8890) 92. Eight bile acids (BA, i.e. primary: cholic acid; conjugated primary: glycocholic acid, taurocholic acid; secondary: deoxycholic acid, lithocholic acid [LCA], isodeoxycholic acid; modified secondary: alloisolithocholic acid [alloisoLCA] and 3-oxolithocholic acid [3-oxoLCA]) were quantified (μg/mL) by negative mode liquid chromatography-electrospray ionization-quadrupole time-of-flight-MS ([-]LC-ESI-QTOF-MS, Agilent 6546). […] For germ-free studies, 6-18 week-old male and female C57BL/6 mice were used. Mice were initially obtained from The Jackson Laboratory and subsequently bred and raised in a germ-free isolator. […]

[3] = test system: Enterococcus; test: Fecal shotgun metagenomics of hospitalized liver disease patients stratified by lactulose exposure: Enterococcus abundance; assay type: in vivo, human; settings: for Regression estimate, association with Enterococcus abundance: Table S1, factors lactulose, PPI, stool consistency, antibiotics
[4] = test system: bacteremia; test: Bacteremia in liver disease patients paired with fecal samples, logistic regression; assay type: in vivo, human
Excerpt: FIGS. 13A-13E: Bifidobacteria expansion and associated metabolite production are associated with decreased incidence of bacteremia). (A) Flow diagram depicting number of samples and number of patients that were filtered out at each step of analysis for bacteremia. (B) Taxonomic relative abundance by shotgun metagenomics of stool samples paired to blood cultures is plotted in order of decreasing Bifidobacteria abundance from left to right. Underneath each stool sample is the clinical diagnosis associated with a given blood culture (bacteremia (red) or no bacteremia (green)). (C) Volcano plot of normalized metabolite concentrations. P-values were calculated using a two-tailed Wilcoxon rank sum test and are corrected for multiple comparisons using the Benjamini-Hochberg procedure. Values with log 2 fold-change >1 (corresponding to a 2-fold change with a p-value <0.05) were considered significant. (D and E) Quantitative levels for butyrate, propionate, lithocholic acid, and alloisolithocholic acid were compared from samples associated and not associated with SBP. Units for SCFA are mM, and units for BA derivatives are in μg/mL. Each point represents a single sample. Median and interquartile range are indicated by the horizontal line and box, respectively. […] Statistical comparisons between individual groups were analyzed using a two-tailed Wilcoxon rank sum test. […]

[5] = test system: Proteobacteria (Enterobacteriaceae); test: Fecal shotgun metagenomics of hospitalized liver disease patients stratified by lactulose exposure: Enterobacteriaceae/Proteobacteria abundance; assay type: in vivo, human; settings: fecal samples from lactulose-treated patients
[6] = test system: Bifidobacteria; test: Fecal shotgun metagenomics of hospitalized liver disease patients stratified by lactulose exposure: Bifidobacteria abundance; assay type: in vivo, human; settings: for Regression estimate, association with Bifidobacteria abundance: Table S1, factors lactulose, PPI, stool consistency, antibiotics
[7] = fecal samples from lactulose-treated patients
[8] = lactulose treated patients, one sample per patient

Structure (SMILES): OC[C@H]1O[C@@H](O[C@@H]2[C@@H](CO)OC(O)(CO)[C@H]2O)[C@H](O)[C@@H](O)[C@H]1O (mixture of isomers) [Lactulose, lactulose]
- VRE growth [1]: modestly augments
- Relative abundance of B. longum ([2]; all consortia (CON.1-3), 20 g/L lactulose in drinking water): increased
- Fecal taurocholic acid concentrations ([2]; all three consortia, 20 g/L lactulose): reduced
- Fecal acetate concentrations ([2]; consortia, 20 g/L lactulose): only modestly increased
- Regression estimate, association with Enterococcus abundance [3]: 0.11
- Regression estimate, association with Enterococcus abundance ([3]; listed as lactulose): positively associates
- Enterococcus abundance, mean [3, 7]: 19.4%
- Enterococcus abundance, median [3, 7]: 0.9%
- Enterococcus abundance, range [3, 7]: 0.0-100%
- Samples with lactulose exposure among bacteremia ([4]; N = 19): (32%)
- Samples with lactulose exposure among no bacteremia ([4]; N = 227): (65%)
- Enterobacteriaceae abundance, mean [5]: 7.9%
- Enterobacteriaceae abundance, median [5]: 0.9%
- Enterobacteriaceae abundance, range [5]: 0.0-98.8%
- Regression estimate, association with Bifidobacteria abundance [6]: 0.17
- Regression estimate, association with Bifidobacteria abundance ([6]; listed as lactulose): positively associates
- Bifidobacteria abundance, mean [6, 8]: 22.2%
- Bifidobacteria abundance, range [6, 8]: 0.0-94.7%
- Fecal samples having ≥10% Bifidobacteria abundance ([6]; lactulose within 7 days prior to sample collection, one sample per patient): 45.2%
- Bifidobacteria density ([6]; patients without antibiotics in the preceding 7 days, lactulose-treated vs not): significantly increased
